Test results taken from patent publication US20250375437A1, “METHODS FOR IMPROVING COGNITIVE FUNCTION” (priority 2024, published 2025).

Legend:
[1] = system: patients with bipolar II disorder; experiment: Continuous Performance Test (Conner's CPT II), sustained attention; format: in vivo, human; settings: 12 weeks versus baseline, result in words
Source text: The present invention recruited patients diagnosed with bipolar II disorder (BD-II). The patients were diagnosed by psychiatrists using the improved Chinese version of the Schedule of Affective Disorder and Schizophrenia-Life Time (SADS-L) with good inter-rater reliability and the Diagnostic and Statistical Manual of Mental Disorders, Fourth Edition, Text Revision (DSM-IV-TR) to confirm that the patient meets the integration points of bipolar II disorder in the DSM-IV-TR.
The purpose of the test of the present invention was to test whether dextromethorphan (DM) and sodium valproate (trade name: Depakine) could improve the cognitive function of patients. Therefore, the patients with bipolar II disorder in the present invention were divided into two groups: one group was the patients taking dextromethorphan and sodium valproate together (BDDM), and the other group was the patients taking sodium valproate and placebo (BDPl). Before the patients of the two group took the drug, the present invention first used the following evaluation test to perform a basic evaluation of the patients of the two groups.
The present invention used the computer version of Conner's CPT II 20 which was used to detect the sustained attention of the patients. In the reliability of Conner's CPT II, the split-half reliability ranged from 0.66 to 0.95, and the retest reliability after three months was […]. […]

[2] = Drug concentration in the plasma of the patients after the end of the treatment; settings: human, in vivo, after 12 weeks of 1 to 30 mg dextromethorphan per day
Method: Both groups were treated with drug. The course of treatment for the group taking dextromethorphan and sodium valproate (BDDM group) was 1 to 30 mg of dextromethorphan and 500 to 2500 mg of sodium valproate per day for 12 weeks. The course of treatment for the group taking sodium valproate and placebo (BDPl group) was 500-2500 mg of sodium valproate and placebo per day for 12 weeks. After the end of the treatment, the concentrations of dextromethorphan in the plasma of the patients were about 10-50 ng/ml (0.05-0.2 μM), and the concentrations of sodium valproate in the plasma were about 50-100 μg/dl.

Compound: COc1ccc2c(c1)[C@]13CCCC[C@@H]1[C@H](C2)N(C)CC3 [dextromethorphan]
- sustained attention (scores of CPT) after the end of the course of treatment [1]: improvement in sustained attention was due to the efficacy of dextromethorphan
- concentration at 12 weeks [2]: 10 to 50 ng/mL
- concentration at 12 weeks ([2]; value in brackets): 50 to 200 nM
